This is an account of results in PubChem BioAssay (NCI).

The structures appear in SMILES notation.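 Cultured in 96-well plates, cells were exposed to test compound for 48 hours across five concentrations. GI50 marks 50% less growth. TGI marks complete inhibition of growth.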 Some results are limits rather than exact numbers.

Assay in all cases: NCI-60 cell line screen, 48 h
Assay [1] concerns SR leukemia.
The test system of assay [2] is HOP-62 NSCLC.
The test system of assay [3] is OVCAR-3 ovarian.
Assay [4] has as its system RPMI-8226 leukemia.
The subject of assay [5] is HT29 colon.
The test system of assay [6] is UACC-257 melanoma.
In assay [7] the test system is UACC-62 melanoma.
Assay [8] relates to K-562 leukemia.

Turning to `c1cncc(CNCc2cccnc2)c1`, the TGI in assay [1], in assay [2], in assay [3], in assay [4], in assay [5] and in assay [6] was more than 100 µM each time. In addition, the TGI in assay [7] and in assay [8] was more than 100 µM each time.
Regarding `CC1=Cc2ccc(C)cc2C(=O)C1=O`, the TGI in assay [1] came out at 4.38 µM; in assay [2], 57 µM; in assay [3] it was 49.4 µM; in assay [4], 7.34 µM; in assay [5], 49.3 µM; in assay [6], 15.8 µM. Further, the TGI was 40.3 µM in assay [7] and more than 23.9 µM in assay [8].
As to `CN(C)CCSS(=O)(=O)O`, the TGI in assay [1], in assay [2], in assay [3], in assay [4], in assay [5] and in assay [7] was more than 100 µM in each case. Further, the TGI in assay [8] is more than 100 µM.
Consider `C=CC(=O)Nc1cc(N2CCN(CC)CC2)ccc1Nc1cc(N(C)C(=O)Nc2c(Cl)c(OC)cc(OC)c2Cl)ncn1`, for which the GI50 in assay [2] was 11.9 µM; in assay [3], 3.49 µM; in assay [4], 2.37 µM; in assay [5], 2.24 µM; in assay [6] it was 13.5 µM; in assay [7], 12.8 µM. Also, the TGI in assay [2] turned out to be 28.8 µM; in assay [3], 15.4 µM; in assay [4] it was 7.22 µM; in assay [5] it was 5.29 µM; in assay [6], 30.1 µM; in assay [7], 27.3 µM.
On to `S=c1nc(N/N=C/c2ccco2)c2cn[nH]c2[nH]1`, for which the GI50 in assay [2] was more than 100 µM; in assay [3], 32.3 µM; in assay [4] it was 18.2 µM; in assay [6], more than 100 µM; in assay [7] it was 33.8 µM; in assay [8], 39.9 µM. Also, the TGI in assay [2], in assay [3], in assay [4], in assay [6], in assay [7] and in assay [8] was more than 100 µM in each case.
With `COC(=O)C1=C(C(=O)OC)C2(C)C=CC1O2` (stereo unspecified), the TGI was more than 100 µM in assay [2]; 2.86 µM in assay [3]; 4.04 µM in assay [4]; 28.5 µM in assay [5]; 29.4 µM in assay [6]; 31.9 µM in assay [7]. Further, in assay [8], the TGI stood at 19.4 µM.
For `COc1cc(C)c(C2NC(=O)c3ccccc3N2)cc1C` (stereo unspecified), the TGI is more than 8.5 µM in assay [1]; more than 97.1 µM in assay [2]; 0.518 µM in assay [3]; 13.6 µM in assay [5]; more than 100 µM in assay [6]; more than 100 µM in assay [7]. This compound also came in with a TGI in assay [8] of more than 52.2 µM.
For the compound `O=C(NCCc1ccccn1)OCc1nc2nc(Cl)nc(N3CCOCC3)c2[nH]1`, the GI50 is 1.97 µM in assay [1]; 2.37 µM in assay [2]; 1.26 µM in assay [3]; 1.62 µM in assay [4]; 1.98 µM in assay [5]; 1.87 µM in assay [6]. In addition, the figures for the GI50 in assay [7] and in assay [8] were 1.53 µM and 2.07 µM, respectively. Also, the TGI was more than 100 µM in assay [1]; 12.6 µM in assay [2]; 2.73 µM in assay [3]; 5.63 µM in assay [4]; 6.75 µM in assay [5]; 5.26 µM in assay [6]. In addition, the TGI in assay [7] came out at 3.03 µM; in assay [8] it was 14.3 µM.
As to `Cc1c(-c2ccnc(N)n2)c2c(n1Cc1ccccc1)C(=O)c1ccccc1C2=O`, the GI50 in assay [1] was 1.84 µM; in assay [2], 13.9 µM; in assay [3], 2.83 µM; in assay [4] it was more than 100 µM; in assay [6], 23.2 µM; in assay [7], more than 100 µM. Moreover, the GI50 in assay [8] is 2.92 µM. Moreover, the TGI was 4.52 µM in assay [1]; 43.6 µM in assay [2]; 21.3 µM in assay [3]; more than 100 µM in assay [4]; more than 100 µM in assay [6]; more than 100 µM in assay [7]. This compound also displayed a TGI in assay [8] of 44.4 µM.
In the case of `Cc1nc(Nc2ccccn2)sc1C(=O)/C=C/c1ccc(Cl)cc1`, the GI50 in assay [1] is 0.518 µM; in assay [2] it was 0.574 µM; in assay [3], 0.325 µM; in assay [4], 0.523 µM; in assay [5], 0.47 µM; in assay [6], 22.8 µM. Also, the GI50 was 0.631 µM in assay [7] and 0.395 µM in assay [8]. The TGI is more than 100 µM in assay [1]; more than 100 µM in assay [2]; 5.48 µM in assay [3]; more than 100 µM in assay [4]; 47.5 µM in assay [5]; more than 100 µM in assay [6]. Moreover, the TGI in assay [7] was 49.8 µM; in assay [8] it was more than 100 µM.
With `O=C([O][Sn]([O]C(=O)c1ccccn1)([c]1ccccc1)[c]1ccccc1)c1ccccn1`, the GI50 was 1.22 µM in assay [1]; 16.5 µM in assay [2]; 1.62 µM in assay [3]; 1.86 µM in assay [4]; 3.06 µM in assay [5]; 1.62 µM in assay [6]. The GI50 in assay [7] was 4.96 µM; in assay [8], 0.405 µM. Besides, the TGI in assay [1] came to 11.3 µM; in assay [2], 31.5 µM; in assay [3], 2.98 µM; in assay [4] it was 6.13 µM; in assay [5] it was 7.97 µM; in assay [6] it was 3.61 µM. The TGI in assay [7] is 17.5 µM; in assay [8], 6.37 µM.
`CC1=Nc2ccccc2/C1=C\c1c(C)[nH]c2ccccc12`: the TGI in assay [1] was found to be 47.5 µM; in assay [2], 69.7 µM; in assay [3] it was 34.8 µM; in assay [4], 88.1 µM; in assay [5] it was 25.4 µM; in assay [6], 30.3 µM. The results for the TGI in assay [7] and in assay [8] were 25.1 µM and more than 100 µM, respectively.
